The record followed here is ChEMBL document CHEMBL1152080, “Linear sesterterpenes from the Caribbean sponge Thorecta horridus with inflammatory activity” (1991).

Format in all cases: functional
Assay [1] is filed under the species Rattus norvegicus. The experiment in a line: Percent release of histamine from rat peritoneal cells was determined at 0.1 ug/mL concentration of compound.
The species named for assay [2] is Rattus norvegicus. The experiment in a line: Percent release of histamine from rat peritoneal cells was determined at 1 ug/mL concentration of compound.
The species named for assay [3] is Rattus norvegicus. Put plainly: Percent release of histamine from rat peritoneal cells was determined at 10 ug/mL concentration of compound.
Assay [4] concerns Rattus norvegicus. Put plainly: Compound was evaluated in vivo for its inflammatory activity in rat paw pretreated with mepyramine (2.5 mg/kg) and methysergide (3 mg/Kg)after administration of compound (1 mg) and percent edema was reported.

Regarding `CC(C)=CCC/C(C)=C/CC/C(C)=C/CC/C(C)=C/CCC1=CC(=O)OC1`, the values for the Histamine release in the assay listed under Rattus norvegicus [1], in the assay listed under Rattus norvegicus [2] and in the assay filed under Rattus norvegicus [3] were 4%, 11% and 30%, respectively. Moreover, the Supression in the assay on Rattus norvegicus [4] is 65%.
